Test results taken from ChEMBL document CHEMBL1201862, “PubChem BioAssay data set” (2004).
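A five-concentration, 48-hour dose response in 96-well plates underlies each endpoint, interpolated linearly between surrounding concentrations. Abbreviation: GI50, concentration required for 50% inhibition of growth.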 The source made the active and inactive calls. Rule as the data show it: active = GI50 up to about 1.1 µM and inactive = higher.

Legend:
Experiment in all cases: DTP human tumour cell line panel, 48 h
MDA-N = test system: MDA-N
T47D = test system: T47D
IGROV-1 = test system: IGROV-1
DU-145 = test system: DU-145
OVCAR-3 = test system: OVCAR-3
UO-31 = test system: UO-31
SN12C = test system: SN12C
COLO 205 = test system: COLO 205
BT-549 = test system: BT-549
HT-29 = test system: HT-29
MCF7 = test system: MCF7
RXF 393 = test system: RXF 393
MDA-MB-231 = test system: MDA-MB-231
ACHN = test system: ACHN
HOP-62 = test system: HOP-62
MDA-MB-435 = test system: MDA-MB-435
NCI-H226 = test system: NCI-H226
SK-MEL-28 = test system: SK-MEL-28
OVCAR-4 = test system: OVCAR-4
SNB-75 = test system: SNB-75
EKVX = test system: EKVX
SR = test system: SR
CAKI-1 = test system: CAKI-1
SF-295 = test system: SF-295
NCI/ADR-RES = test system: NCI/ADR-RES
A498 = test system: A498
OVCAR-5 = test system: OVCAR-5
NCI-H522 = test system: NCI-H522
CCRF-CEM = test system: CCRF-CEM
OVCAR-8 = test system: OVCAR-8
HOP-92 = test system: HOP-92
SK-OV-3 = test system: SK-OV-3
SK-MEL-2 = test system: SK-MEL-2
HCT-15 = test system: HCT-15
A549 = test system: A549
SK-MEL-5 = test system: SK-MEL-5
Hs-578T = test system: Hs-578T
M14 = test system: M14
Malme-3M = test system: Malme-3M
HCT-116 = test system: HCT-116
UACC-257 = test system: UACC-257
KM12 = test system: KM12
SF-268 = test system: SF-268
SW-620 = test system: SW-620
786-0 = test system: 786-0
UACC-62 = test system: UACC-62
U-251 = test system: U-251
HL-60 = test system: HL-60
NCI-H23 = test system: NCI-H23
SF-539 = test system: SF-539
K562 = test system: K562
LOX IMVI = test system: LOX IMVI
MOLT-4 = test system: MOLT-4
NCI-H460 = test system: NCI-H460
TK-10 = test system: TK-10
HCC 2998 = test system: HCC 2998
SNB-19 = test system: SNB-19
PC-3 = test system: PC-3
RPMI-8226 = test system: RPMI-8226

Compound: O=C1CC(=O)c2c(Cl)sc(Cl)c21
- GI50 (MDA-N): > 100 µM (inactive)
- GI50 (T47D): > 100 µM (inactive)
- GI50 (IGROV-1): > 100 µM (inactive)
- GI50 (DU-145): > 100 µM (inactive)
- GI50 (OVCAR-3): 86.5 µM (inactive)
- GI50 (UO-31): > 100 µM (inactive)
- GI50 (SN12C): > 100 µM (inactive)
- GI50 (COLO 205): > 100 µM (inactive)
- GI50 (BT-549): > 100 µM (inactive)
- GI50 (HT-29): > 100 µM (inactive)
- GI50 (MCF7): 45.5 µM (inactive)
- GI50 (RXF 393): 16.1 µM (inactive)
- GI50 (MDA-MB-231): > 100 µM (inactive)
- GI50 (ACHN): > 100 µM (inactive)
- GI50 (HOP-62): > 100 µM (inactive)
- GI50 (MDA-MB-435): 64.1 µM (inactive)
- GI50 (NCI-H226): 86.1 µM (inactive)
- GI50 (SK-MEL-28): 53.8 µM (inactive)
- GI50 (OVCAR-4): 29.2 µM (inactive)
- GI50 (SNB-75): > 100 µM (inactive)
- GI50 (EKVX): > 100 µM (inactive)
- GI50 (SR): 25.6 µM (inactive)
- GI50 (CAKI-1): > 100 µM (inactive)
- GI50 (SF-295): > 100 µM (inactive)
- GI50 (NCI/ADR-RES): > 100 µM (inactive)
- GI50 (A498): > 100 µM (inactive)
- GI50 (OVCAR-5): > 100 µM (inactive)
- GI50 (NCI-H522): 23.8 µM (inactive)
- GI50 (CCRF-CEM): 37.2 µM (inactive)
- GI50 (OVCAR-8): 52.2 µM (inactive)
- GI50 (HOP-92): > 100 µM (inactive)
- GI50 (SK-OV-3): > 100 µM (inactive)
- GI50 (SK-MEL-2): > 100 µM (inactive)
- GI50 (HCT-15): 64.4 µM
- GI50 (A549): 87.1 µM (inactive)
- GI50 (SK-MEL-5): > 100 µM (inactive)
- GI50 (Hs-578T): 33.8 µM (inactive)
- GI50 (M14): > 100 µM (inactive)
- GI50 (Malme-3M): 21.6 µM (inactive)
- GI50 (HCT-116): > 100 µM (inactive)
- GI50 (UACC-257): > 100 µM (inactive)
- GI50 (KM12): > 100 µM (inactive)
- GI50 (SF-268): 64.7 µM (inactive)
- GI50 (SW-620): 91 µM (inactive)
- GI50 (786-0): > 100 µM (inactive)
- GI50 (UACC-62): 92.3 µM (inactive)
- GI50 (U-251): > 100 µM (inactive)
- GI50 (HL-60): 30.3 µM (inactive)
- GI50 (NCI-H23): 51.6 µM (inactive)
- GI50 (SF-539): > 100 µM (inactive)
- GI50 (K562): 40.9 µM (inactive)
- GI50 (LOX IMVI): 52.8 µM (inactive)
- GI50 (MOLT-4): 34.1 µM (inactive)
- GI50 (NCI-H460): > 100 µM (inactive)
- GI50 (TK-10): > 100 µM (inactive)

Compound: Cc1ccc(S(=O)(=O)NC2=NS(=O)(=O)c3cc(C)c(Cl)cc3S2)cc1
- GI50 (T47D): 70.1 µM (inactive)
- GI50 (HCC 2998): 82.6 µM (inactive)
- GI50 (IGROV-1): > 100 µM (inactive)
- GI50 (DU-145): > 100 µM (inactive)
- GI50 (OVCAR-3): > 100 µM (inactive)
- GI50 (UO-31): > 100 µM (inactive)
- GI50 (SN12C): > 100 µM (inactive)
- GI50 (COLO 205): > 100 µM (inactive)
- GI50 (SNB-19): 75 µM (inactive)
- GI50 (BT-549): > 100 µM (inactive)
- GI50 (HT-29): > 100 µM (inactive)
- GI50 (MCF7): 85.3 µM (inactive)
- GI50 (RXF 393): 76.7 µM (inactive)
- GI50 (MDA-MB-231): > 100 µM (inactive)
- GI50 (ACHN): > 100 µM (inactive)
- GI50 (HOP-62): > 100 µM (inactive)
- GI50 (MDA-MB-435): > 100 µM (inactive)
- GI50 (NCI-H226): > 100 µM (inactive)
- GI50 (SK-MEL-28): > 100 µM (inactive)
- GI50 (OVCAR-4): > 100 µM (inactive)
- GI50 (SNB-75): > 100 µM (inactive)
- GI50 (EKVX): > 100 µM (inactive)
- GI50 (SR): 63.4 µM (inactive)
- GI50 (PC-3): 45.5 µM (inactive)
- GI50 (CAKI-1): > 100 µM (inactive)
- GI50 (SF-295): 70.5 µM (inactive)
- GI50 (NCI/ADR-RES): > 100 µM (inactive)
- GI50 (A498): > 100 µM (inactive)
- GI50 (OVCAR-5): > 100 µM (inactive)
- GI50 (NCI-H522): 42.3 µM (inactive)
- GI50 (OVCAR-8): > 100 µM (inactive)
- GI50 (HOP-92): 24.4 µM (inactive)
- GI50 (SK-OV-3): > 100 µM (inactive)
- GI50 (SK-MEL-2): > 100 µM (inactive)
- GI50 (HCT-15): > 100 µM
- GI50 (A549): > 100 µM (inactive)
- GI50 (SK-MEL-5): > 100 µM (inactive)
- GI50 (Hs-578T): > 100 µM (inactive)
- GI50 (M14): 81.8 µM (inactive)
- GI50 (Malme-3M): 38.8 µM (inactive)
- GI50 (HCT-116): 88.3 µM (inactive)
- GI50 (UACC-257): > 100 µM (inactive)
- GI50 (KM12): > 100 µM (inactive)
- GI50 (SF-268): > 100 µM (inactive)
- GI50 (SW-620): 71.6 µM (inactive)
- GI50 (786-0): > 100 µM (inactive)
- GI50 (RPMI-8226): > 100 µM (inactive)
- GI50 (UACC-62): > 100 µM (inactive)
- GI50 (U-251): > 100 µM (inactive)
- GI50 (HL-60): > 100 µM (inactive)
- GI50 (NCI-H23): > 100 µM (inactive)
- GI50 (SF-539): 58.3 µM (inactive)
- GI50 (K562): 34.3 µM (inactive)
- GI50 (LOX IMVI): 62.2 µM (inactive)
- GI50 (MOLT-4): 39.1 µM (inactive)
- GI50 (NCI-H460): > 100 µM (inactive)
- GI50 (TK-10): > 100 µM (inactive)
